Species: Rattus norvegicus
Assay: Open TG-GATES - Regimen: Daily Repeat
Format: toxicity, organism-based, Sprague-Dawley
Set-up: regimen Daily Repeat, gender Male, age 6 weeks
Settings: in vivo, po, route gavage; for APTT / Bas / Eos / Fbg / Hb / Ht / Lym / MCH / MCHC / MCV / Mono / Neu / Plat / RBC / Ret / WBC: tissue Blood; for KIDNEY_L / KIDNEY_R / KIDNEY_TOTAL: tissue Kidney; for ALP / ALT / AST / BUN / CRE / DBIL / GLC / IP / K / LDH / Na / PL / RALB / TBIL / TC / TG / TP / gamma-GTP: tissue Plasma
[1] = 30 mg/kg, 72 h, dose level Middle, time 3 day
[2] = 30 mg/kg, […], dose level Middle, time 7 day
[3] = 30 mg/kg, […], dose level Middle, time 14 day
[4] = 30 mg/kg, […], dose level Middle, time 28 day
[5] = 100 mg/kg, 72 h, dose level High, time 3 day
[6] = 100 mg/kg, […], dose level High, time 7 day
[7] = 100 mg/kg, […], dose level High, time 14 day
[8] = 100 mg/kg, […], dose level High, time 28 day

Structure (SMILES): CN(C)CCC=C1c2ccccc2COc2ccccc21 [DOXEPIN]
- TERMINAL_BW [1]: 221 g
- APTT [1]: 16.8 s
- Bas [1]: 0%
- Eos [1]: 0.8%
- Fbg [1]: 336.2 mg/dL
- Hb [1]: 13 g/dL
- Ht [1]: 37.8%
- Lym [1]: 73.4%
- MCH [1]: 21.6 pg
- MCHC [1]: 34.4%
- MCV [1]: 62.9 fL
- Mono [1]: 2.8%
- Neu [1]: 22.6%
- Plat [1]: 113.6 x10_4/uL
- RBC [1]: 600.6 x10_4/ul
- Ret [1]: 6.9%
- WBC [1]: 66.4 x10_2/uL
- KIDNEY_L [1]: 1 g
- KIDNEY_R [1]: 1 g
- KIDNEY_TOTAL [1]: 2 g
- ALP [1]: 1714.2 IU/L
- ALT [1]: 50 IU/L
- AST [1]: 75 IU/L
- BUN [1]: 15 mg/dL
- CRE [1]: 0.2 mg/dL
- DBIL [1]: 0.018 mg/dL
- GLC [1]: 193.6 mg/dL
- IP [1]: 7.3 mg/dL
- K [1]: 4.5 meq/L
- LDH [1]: 94 IU/L
- Na [1]: 142.2 meq/L
- PL [1]: 147.6 mg/dL
- RALB [1]: 2.7 g/dL
- TBIL [1]: 0.032 mg/dL
- TC [1]: 81.2 mg/dL
- TG [1]: 97 mg/dL
- TP [1]: 5.9 g/dL
- gamma-GTP [1]: 1.2 IU/L
- TERMINAL_BW [2]: 252.6 g
- TERMINAL_BW [3]: 310 g
- TERMINAL_BW [4]: 397.6 g
- APTT [2]: 18.3 s
- Bas [2]: 0%
- Eos [2]: 1%
- Fbg [2]: 293.4 mg/dL
- Hb [2]: 13.4 g/dL
- Ht [2]: 38.2%
- Lym [2]: 81.4%
- MCH [2]: 21.5 pg
- MCHC [2]: 35.1%
- MCV [2]: 61.2 fL
- Mono [2]: 2.6%
- Neu [2]: 14.4%
- Plat [2]: 115.8 x10_4/uL
- RBC [2]: 624.8 x10_4/ul
- Ret [2]: 5.8%
- WBC [2]: 90.6 x10_2/uL
- APTT [3]: 16.2 s
- Bas [3]: 0%
- Eos [3]: 1%
- Fbg [3]: 310.4 mg/dL
- Hb [3]: 14 g/dL
- Ht [3]: 40.7%
- Lym [3]: 77.2%
- MCH [3]: 20.9 pg
- MCHC [3]: 34.5%
- MCV [3]: 60.6 fL
- Mono [3]: 2.4%
- Neu [3]: 18.8%
- Plat [3]: 101.5 x10_4/uL
- RBC [3]: 671.4 x10_4/ul
- Ret [3]: 4.6%
- WBC [3]: 80.3 x10_2/uL
- APTT [4]: 18 s
- Bas [4]: 0%
- Eos [4]: 1.4%
- Fbg [4]: 282 mg/dL
- Hb [4]: 14.9 g/dL
- Ht [4]: 42%
- Lym [4]: 79%
- MCH [4]: 19.7 pg
- MCHC [4]: 35.4%
- MCV [4]: 55.8 fL
- Mono [4]: 2.6%
- Neu [4]: 16.4%
- Plat [4]: 112.2 x10_4/uL
- RBC [4]: 754.2 x10_4/ul
- Ret [4]: 2.4%
- WBC [4]: 93.4 x10_2/uL
- KIDNEY_L [2]: 1 g
- KIDNEY_R [2]: 1 g
- KIDNEY_TOTAL [2]: 2.1 g
- KIDNEY_L [3]: 1.2 g
- KIDNEY_R [3]: 1.2 g
- KIDNEY_TOTAL [3]: 2.4 g
- KIDNEY_L [4]: 1.4 g
- KIDNEY_R [4]: 1.3 g
- KIDNEY_TOTAL [4]: 2.7 g
- ALP [2]: 1770.4 IU/L
- ALT [2]: 48 IU/L
- AST [2]: 72.6 IU/L
- BUN [2]: 17.4 mg/dL
- CRE [2]: 0.2 mg/dL
- DBIL [2]: 0.018 mg/dL
- GLC [2]: 191.2 mg/dL
- IP [2]: 7.2 mg/dL
- K [2]: 4.3 meq/L
- LDH [2]: 76.2 IU/L
- Na [2]: 142 meq/L
- PL [2]: 145.4 mg/dL
- RALB [2]: 2.7 g/dL
- TBIL [2]: 0.034 mg/dL
- TC [2]: 75.8 mg/dL
- TG [2]: 106.4 mg/dL
- TP [2]: 5.7 g/dL
- gamma-GTP [2]: 1.4 IU/L
- ALP [3]: 1433.6 IU/L
- ALT [3]: 42.8 IU/L
- AST [3]: 69 IU/L
- BUN [3]: 18.8 mg/dL
- CRE [3]: 0.2 mg/dL
- DBIL [3]: 0.014 mg/dL
- GLC [3]: 191.4 mg/dL
- IP [3]: 6.8 mg/dL
- K [3]: 4.1 meq/L
- LDH [3]: 69.6 IU/L
- Na [3]: 142.8 meq/L
- PL [3]: 148.6 mg/dL
- RALB [3]: 2.7 g/dL
- TBIL [3]: 0.026 mg/dL
- TC [3]: 71.4 mg/dL
- TG [3]: 153.8 mg/dL
- TP [3]: 6 g/dL
- gamma-GTP [3]: 1 IU/L
- ALP [4]: 1369.6 IU/L
- ALT [4]: 43.6 IU/L
- AST [4]: 67.2 IU/L
- CRE [4]: 0.2 mg/dL
- DBIL [4]: 0.022 mg/dL
- GLC [4]: 185 mg/dL
- IP [4]: 6.1 mg/dL
- K [4]: 4.1 meq/L
- LDH [4]: 81.4 IU/L
- Na [4]: 143.6 meq/L
- PL [4]: 140.6 mg/dL
- RALB [4]: 2.8 g/dL
- TBIL [4]: 0.034 mg/dL
- TC [4]: 66 mg/dL
- TG [4]: 166.4 mg/dL
- TP [4]: 6.2 g/dL
- gamma-GTP [4]: 1.4 IU/L
- TERMINAL_BW [5]: 208.5 g
- APTT [5]: 18.1 s
- Bas [5]: 0%
- Eos [5]: 1.2%
- Fbg [5]: 285 mg/dL
- Hb [5]: 13.6 g/dL
- Ht [5]: 39.2%
- Lym [5]: 78%
- MCH [5]: 21.3 pg
- MCHC [5]: 34.7%
- MCV [5]: 61.5 fL
- Mono [5]: 3.2%
- Neu [5]: 17.2%
- Plat [5]: 113.2 x10_4/uL
- RBC [5]: 637.4 x10_4/ul
- Ret [5]: 6.3%
- WBC [5]: 77.5 x10_2/uL
- KIDNEY_L [5]: 0.9 g
- KIDNEY_R [5]: 0.9 g
- KIDNEY_TOTAL [5]: 1.8 g
- ALP [5]: 1907.8 IU/L
- ALT [5]: 51 IU/L
- AST [5]: 75.4 IU/L
- BUN [5]: 16.6 mg/dL
- CRE [5]: 0.2 mg/dL
- DBIL [5]: 0.014 mg/dL
- GLC [5]: 196.2 mg/dL
- IP [5]: 8.4 mg/dL
- K [5]: 4.2 meq/L
- LDH [5]: 86 IU/L
- Na [5]: 142.6 meq/L
- PL [5]: 145.2 mg/dL
- RALB [5]: 2.7 g/dL
- TBIL [5]: 0.038 mg/dL
- TC [5]: 85.4 mg/dL
- TG [5]: 58.2 mg/dL
- TP [5]: 5.7 g/dL
- gamma-GTP [5]: 1.2 IU/L
- TERMINAL_BW [6]: 235 g
- TERMINAL_BW [7]: 276.3 g
- TERMINAL_BW [8]: 344.8 g
- APTT [6]: 16.4 s
- Bas [6]: 0%
- Eos [6]: 1.2%
- Fbg [6]: 311.4 mg/dL
- Hb [6]: 14 g/dL
- Ht [6]: 40.1%
- Lym [6]: 75.6%
- MCH [6]: 21.1 pg
- MCHC [6]: 34.9%
- MCV [6]: 60.4 fL
- Mono [6]: 2.8%
- Neu [6]: 20.2%
- Plat [6]: 106.3 x10_4/uL
- RBC [6]: 665.6 x10_4/ul
- Ret [6]: 5.1%
- WBC [6]: 94.7 x10_2/uL
- APTT [7]: 17.9 s
- Bas [7]: 0%
- Eos [7]: 1%
- Fbg [7]: 284.2 mg/dL
- Hb [7]: 14.7 g/dL
- Ht [7]: 42.7%
- Lym [7]: 77.6%
- MCH [7]: 20.2 pg
- MCHC [7]: 34.6%
- MCV [7]: 58.4 fL
- Mono [7]: 3.2%
- Neu [7]: 17.6%
- Plat [7]: 101.4 x10_4/uL
- RBC [7]: 731 x10_4/ul
- Ret [7]: 3.8%
- WBC [7]: 106 x10_2/uL
- APTT [8]: 20.2 s
- Bas [8]: 0%
- Eos [8]: 1.2%
- Fbg [8]: 290.6 mg/dL
- Hb [8]: 16.2 g/dL
- Ht [8]: 45.8%
- Lym [8]: 78.8%
- MCH [8]: 19.9 pg
- MCHC [8]: 35.4%
- MCV [8]: 56.2 fL
- Mono [8]: 1.8%
- Neu [8]: 17.8%
- Plat [8]: 100.9 x10_4/uL
- RBC [8]: 815.6 x10_4/ul
- Ret [8]: 2.3%
- WBC [8]: 90.5 x10_2/uL
- KIDNEY_L [6]: 1 g
- KIDNEY_R [6]: 1 g
- KIDNEY_TOTAL [6]: 2 g
- KIDNEY_L [7]: 1.1 g
- KIDNEY_R [7]: 1.1 g
- KIDNEY_TOTAL [7]: 2.2 g
- KIDNEY_L [8]: 1.3 g
- KIDNEY_R [8]: 1.3 g
- KIDNEY_TOTAL [8]: 2.6 g
- ALP [6]: 1566.6 IU/L
- ALT [6]: 44.8 IU/L
- AST [6]: 72.4 IU/L
- BUN [6]: 17.4 mg/dL
- CRE [6]: 0.2 mg/dL
- DBIL [6]: 0.018 mg/dL
- GLC [6]: 193 mg/dL
- IP [6]: 7.9 mg/dL
- K [6]: 4.1 meq/L
- LDH [6]: 88.8 IU/L
- Na [6]: 142 meq/L
- PL [6]: 145 mg/dL
- RALB [6]: 2.8 g/dL
- TBIL [6]: 0.036 mg/dL
- TC [6]: 77 mg/dL
- TG [6]: 116.8 mg/dL
- TP [6]: 6 g/dL
- gamma-GTP [6]: 1.8 IU/L
- ALP [7]: 1470 IU/L
- ALT [7]: 46.2 IU/L
- AST [7]: 71.4 IU/L
- BUN [7]: 17.8 mg/dL
- CRE [7]: 0.2 mg/dL
- DBIL [7]: 0.012 mg/dL
- GLC [7]: 179.8 mg/dL
- IP [7]: 8.1 mg/dL
- K [7]: 4.3 meq/L
- LDH [7]: 53.8 IU/L
- Na [7]: 142.8 meq/L
- PL [7]: 141.6 mg/dL
- RALB [7]: 2.7 g/dL
- TBIL [7]: 0.022 mg/dL
- TC [7]: 76 mg/dL
- TG [7]: 106.6 mg/dL
- TP [7]: 6 g/dL
- gamma-GTP [7]: 1.2 IU/L
- ALP [8]: 1314.6 IU/L
- ALT [8]: 46.8 IU/L
- AST [8]: 68.6 IU/L
- BUN [8]: 17.2 mg/dL
- CRE [8]: 0.2 mg/dL
- DBIL [8]: 0.018 mg/dL
- GLC [8]: 181 mg/dL
- IP [8]: 6.6 mg/dL
- K [8]: 4.1 meq/L
- LDH [8]: 83.4 IU/L
- Na [8]: 144.2 meq/L
- PL [8]: 139.6 mg/dL
- RALB [8]: 3 g/dL
- TBIL [8]: 0.028 mg/dL
- TC [8]: 79.2 mg/dL
- TG [8]: 74.6 mg/dL
- TP [8]: 6.4 g/dL
- gamma-GTP [8]: 1 IU/L

From ChEMBL document CHEMBL3885861, “Open TG-GATES”
